The values below come from EP0007294A2, “Membrane stabilizing compounds having beta-receptor blocking activity, their preparation, method for treatment of arrhythmic conditions, and pharmaceutical preparations containing same” (priority 1978, dated 1980).

A short description of data set [1]: Alternative chloroform test on mice: ventricular tachycardia inhibition and ataxia. The class given is in vivo. To be noted: mouse, in vivo. On the procedure:
(§1) In an alternative chloroform test on mice the ventricular tachycardia inhibition by the test compounds are observed. Thereby the test solution is given subcutaneous and the animal is observed for CNS-effects for 20 min. The mouse is put into a chamber with chloroform until it stops breathing (approx 30 sec.). The animal is then secured on a cork-board and ECG is monitored. If the ventricular rythm is less than 520 beats per min., the animal was protected against ventricular tachycardia. Groups of 10 animals were tested for each dose-level'and the ED50-values have been calculated therefrom. During the test the side-effect ataxia (incordination of movements) is observed.
(§2) In Table 5, as shown, the new compounds tested exerted antiarrhythmic effects also in this te-st.

Data set [2] deals with chloroform induced ventricular tachy-cardia. The data set is described as above. It is filed as in vivo. To be noted: Mus musculus; sc.; mice, chloroform; groups of 10 animals per dose-level. The protocol:
as §1, §2

A short description of data set [3]: Conscious dogs with ligation of a coronary artery according to Harris: ectopics and convulsions. It is filed as in vivo. As to conditions: in vivo. From the text: (§3) Male beagle dogs, 7-13 kg, undergo two days prior to the test a surgical ligation of a coronary artery. On the day of the test the conscious dog is secured in a canvas sling in a standing position and given increasing doses of the test compounds by intravenous administration. ECG, blood pressure etc are monitored and attention is paid to all CNS-effects. The dogs have almost 100 percent of ectopics prior to administration of the compound to be tested. Effects of the test drug on the frequency of ectopics are calculated from ECG. The accumulative end doses giving 50% and 90% reduction of ectopics as well as the ED50 values which give convulsions (side-effect) are measured and given below in Table 3. The value for convulsions is a mean value for 3-5 dogs.
(§4) x) The value given is the final value in a series of doses 0.5 + 1 + 2 + 4 + 8 mg/kg i.v. giving 50% reduction of ectopics. 30 min interval between doses.
(§5) Table 3: Antiarrythmic effect and CNS-effects of four β-receptor blockers, a membrane stabilizer, and ten new compounds with combined β-blocking and membrane stabilizing effect.

A further data set has as its system ectopics. Described as above. The class given is in vivo. As to conditions: Canis lupus familiaris, iv.; for ED50: accumulative end dose giving 50% reduction of ectopics, read-out: Conscious dog Harris ligation Ectopics -50%; for ED90: accumulative end dose giving 90% reduction of ectopics, read-out: Conscious dog Harris ligation Ectopics -90%.
Description: as §3, §4, §5

Data set [4] deals with ouabain-induced arrhythmias. The data set can be described thus: Ouabain-induced arrhythmias in anesthetized guinea-pigs. It is filed as in vivo. As to conditions: for A-A EFFECT IN NUMBER OF ANIMALS: animals with antiarrhythmic effect / animals tested; for LOWEST FREQUENCY: frequency of ventricular premature beats after test solution; for ASYSTOLE: time of asystole under continued ouabain; for V-FIB: time of ventricular fibrillation under continued ouabain. On the procedure:
Guinea-pigs of either.sex (300-400 g) were anesthetized with urethane 1,4 g/kg i.p. and tracheotomized. ECG, lead II was picked up with needle electrodes and was registered continuously throughout the experiment. Two i.v. catheters were inserted: one for the administration of ouabain, the other for the test solution.
The experimental design for the study of antiarrhythmic activities is schematically shown in the head of Table 2. The arrhythmia was induced by automatic infusion of ouabain, 18 µg/kg/60" every two minutes for twelve minutes and thereafter 9 µg/kg/30" every two minutes throughout the whole experiment and the infusion was not stopped until asystole occurred. As soon as the frequency of ventricular premature beats (VPB) had passed 50 per cent, the test solution was given i.v. (0,2 ml/min) during 2 min. (see head of Table 2).

Data set [5] has as its system chloroform-induced ventricular arrhythmias. The data set can be described thus: Chloroform-induced ventricular arrhythmias (fibrillation) in mice, intraperitoneal dose. As to conditions: for Number of Animals Protected: protected against CHCl3-induced ventricular fibrillation. From the text: Mice were given an intraperitoneal dose of the test compound. Twenty minutes after dose, they were suffocated in chloroform vapor.- When the animals stopped breathing, the chest was opened to inspect for fibrillation. If the heart was not fibrillating, it was prodded.
Signs of CNS toxicity were noted during the 20-minute interval between dosing and challenge.
"Protected" means number of animals protected against CHC13- induced ventricular fibrillation.

Setting [6] is: dose 100 mg/kg intraperitoneal, 10 treated.

Where two headings read alike, the source gives them in different places.

`COCCc1ccc(OCC(O)CNCCc2ccc(O)cc2)cc1` (stereo not shown) [Ex. 2] returned a TD50 at 20 min in data set [1] (sc) of more than 13 mg/kg. Further, the ED50 in data set [2] was determined as 3 mg/kg. Besides, the TD50 in data set [3] (dog, iv) was determined as 8 mg/kg. Moreover, in the data set with ectopics, the ED50 was 4 mg/kg and the ED90 was found to be 8 mg/kg. In addition, in data set [4] (dose 0.1 mg/kg i.v.), the “A-A EFFECT IN NUMBER OF ANIMALS” value is 7/7, the “LOWEST FREQUENCY” value is given as 25±7%, the ASYSTOLE amounted to 27 ± 3 min and the V-FIB is 20 ± 2 min. In data set [4] (dose 0.3 mg/kg i.v.), the “A-A EFFECT IN NUMBER OF ANIMALS” value is given as 6/6, the “LOWEST FREQUENCY” value is on record as 5±2%, the ASYSTOLE was 35 ± 3 min and the V-FIB was 29 ± 2 min. In addition, in data set [5] (setting [6]), the “Number of Animals Dead” value turned out to be 0 and the “Number of Animals Protected” value worked out at 8. Moreover, in data set [5] (mouse, in vivo, ip, 100 mg/kg), the “Number of Animals Convulsive” value is on record as 0 and the “Number of Animals LRR” value was 0.

In the case of `COCCc1ccc(OCC(O)CNC(C)C)cc1` (stereo not shown) [Metoprolol], in data set [1] (sc), the TD50 at 20 min was more than 50 mg/kg. The molecule further returned an ED50 in data set [2] of 2.6 mg/kg. Further, the TD50 in data set [3] (dog, iv) was more than 8 mg/kg. Besides, in the data set with ectopics, the ED50 was determined as 4 mg/kg and the ED90 was 8 mg/kg. Moreover, in data set [4] (dose 0.03 mg/kg i.v.), the “A-A EFFECT IN NUMBER OF ANIMALS” value is 6/6, the “LOWEST FREQUENCY” value stood at 34±5%, the ASYSTOLE came to 35 ± 4 min and the V-FIB is 25 ± 3 min. In addition, in data set [4] (dose 0.1 mg/kg i.v.), the “A-A EFFECT IN NUMBER OF ANIMALS” value is given as 6/6, the “LOWEST FREQUENCY” value stood at 16±7%, the ASYSTOLE turned out to be 38 ± 5 min and the V-FIB was 32 ± 5 min. In data set [4] (dose 0.3 mg/kg i.v.), the “A-A EFFECT IN NUMBER OF ANIMALS” value was 6/6, the “LOWEST FREQUENCY” value came out at 1±1%, the ASYSTOLE is 48 ± 6 min and the V-FIB stood at 37 ± 3 min.

Take `CC(C)NCC(O)COc1cccc2ccccc12` (stereo not shown) [Propranolol]: in data set [1] (sc., mice, observed for 20 min, read-out: Ataxia ED50), the TD50 at 20 min was more than 1 mg/kg. In data set [2], the ED50 is 0.6 mg/kg. For the same molecule, the TD50 in data set [3] (iv., conscious dog, mean value for 3-5 dogs, read-out: ED50 Convulsive) stood at 8 mg/kg. In the data set with ectopics, the ED50 was 1 mg/kg and the ED90 was 3 mg/kg. In addition, in data set [4] (dose 0.03 mg/kg i.v.), the “A-A EFFECT IN NUMBER OF ANIMALS” value is given as 6/7, the “LOWEST FREQUENCY” value amounted to 29±5%, the ASYSTOLE came out at 29 ± 2 min and the V-FIB worked out at 21 ± 3 min. For the same molecule, in data set [4] (dose 0.1 mg/kg i.v.), the “A-A EFFECT IN NUMBER OF ANIMALS” value is reported as 6/7, the “LOWEST FREQUENCY” value came out at 9±5%, the ASYSTOLE worked out at 35 ± 4 min and the V-FIB is 30 ± 5 min. Also, in data set [4] (dose 0.3 mg/kg i.v.), the “A-A EFFECT IN NUMBER OF ANIMALS” value was 6/6, the “LOWEST FREQUENCY” value was determined as 4±2%, the ASYSTOLE worked out at 32 ± 5 min and the V-FIB was 27 ± 6 min. Besides, in data set [5] (setting [6]), the “Number of Animals Dead” value was 0 and the “Number of Animals Protected” value amounted to 10. In addition, in data set [5] (dose 100 mg/kg intraperitoneal, 10 treated, convulsions within 20 minutes after dosing), the “Number of Animals Convulsive” value was 10. Further, the “Number of Animals LRR” value in data set [5] (dose 100 mg/kg intraperitoneal, 10 treated, loss of righting reflex) was 1.
